Reference: article PMC11083565, “Computational Design of Novel Cyclic Peptides Endowed with Autophagy-Inhibiting Activity on Cancer Cell Lines” (International Journal of Molecular Sciences, 2024)
Where two headings read alike, the source gives them in different places. Where a SMILES comes first, the peptide text is derived from it. Bridges are numbered along the chain shown (N, C = ends). Where no end group is shown, it is not given here. [ ]: non-standard residue; d: D form. The star is where a group is joined. d(pT) = C[C@H](OP(=O)(O)O)[C@@H](N)C(=O)O; pY = N[C@@H](Cc1ccc(OP(=O)(O)O)cc1)C(=O)O; OBn = c1ccc(CO*)cc1; Bn = c1ccc(C*)cc1

Tests used:
[1] = tested on: LC3-I and LC3-II expression in PC3 cells; assay: Western blot of LC3-I / LC3-II in PC3 cells; format: cell-based, human
A549 cells = conditions: 96 h, 5 µM
MCF-7 cells = conditions: 96 h, 5 µM
bladder cancer = tested on: bladder cancer; parameters: method as in PMID 31574376; conditions: combination with autophagy inhibitors; ref [27]; cited from earlier work
[2] = target: human recombinant His-tagged LC3B protein (Homo sapiens, UniProt Q9GZQ8); format: binding
DU145 cells = format: cell-based, human
[3] = tested on: SQSTM1/p62 expression in PC3 cells; format: cell-based, human

Cn1cnc(N)c2ncnc1-2 [Pep 3-MA, 3-methyladenine, reference compound]
LC3-I and LC3-II expression ([1]; PC3, 3-MA 1 mM, compared with Pep3 effect): The same effect on LC3-I and LC3-II expression

DIDEFDLLEGDE [LIR2-RavZ, reference compound]
cell viability A549 (A549 cells): 81.1%
cell viability MCF-7 (MCF-7 cells): 85.4%

CNC(=O)c1ccc(N2C(=S)N(c3ccc(C#N)c(C(F)(F)F)c3)C(=O)C2(C)C)cc1F [enzalutamide]
apoptosis of bladder cancer (bladder cancer): effectively induced bladder cancer apoptosis in vitro and in vivo

CC(=O)N[C@@H](CC(=O)O)C(=O)N[C@@H](CCC(=O)OCc1ccccc1)C(=O)N[C@@H](C(=O)N[C@@H](CCC(=O)O)C(=O)N[C@H](Cc1ccccc1)C(=O)N[C@@H](C(=O)N[C@@H](Cc1ccc(OP(=O)(O)O)cc1)C(=O)N[C@@H](CC(C)C)C(=O)N[C@@H](CCC(=O)O)C(=O)N[C@@H]1CSSC[C@H](C(N)=O)NC(=O)[C@H](CC(=O)O)NC1=O)[C@H](C)OP(=O)(O)O)[C@H](C)OCc1ccccc1 [Pep6] (Ac-DE(OBn)[dT](Bn)E[dF][d(pT)][pY]LE[dC]D[dC]-NH2; disulfide 10-12)
Kd compared with LIR2-RavZ [2]: about three times lower
effect on DU145 cell viability (DU145 cells): ineffective
LC3-I and LC3-II expression [1]: significantly reduced
LC3-II/LC3-I ratio [1]: without changing the LC3-II/LC-I ratio
LC3-II/LC3-I ratio with trehalose [1]: able to decrease the LC3-II/LC3- ratio compared to trehalose alone
p62 expression [3]: significantly increased
duration of antitumoral effect (PC3 cells): more stable over time than Pep3
effect on PC3 cell viability (PC3 cells): reduction in cell viability
relative efficacy on PC3 cell viability (PC3 cells): greater efficacy of Pep6 compared to LIR2-RavZ at all doses used
effect on PNT2 cells (PNT2 cells): ineffective
cell viability A549 (A549 cells): 76.7%
cell viability MCF-7 (MCF-7 cells): 80.7%
